# Data taken from publication PMC11178805, “Ligand-based design of [^18F]OXD-2314 for PET imaging in non-Alzheimer’s disease tauopathies” (Nature Communications, 2024).
# Where “and” joins values, the source holds several entries; their conditions need not be identical. Equal values may be shown once.
# Assays:
# [1] = biological target: T1, 4R-tau aggregates in PSP tissue (Homo sapiens, UniProt P10636); assay: Competition binding vs [^3H]OXD-2115 in PSP tissue homogenates; settings: vs [^3H]OXD-2115, PSP tissue homogenates, n = 1
# T1 construct: tissue Neurodegenerative Disease Brain Bank at UCSF
# T1 sequence (P10636 1-441 isoform P10636-8): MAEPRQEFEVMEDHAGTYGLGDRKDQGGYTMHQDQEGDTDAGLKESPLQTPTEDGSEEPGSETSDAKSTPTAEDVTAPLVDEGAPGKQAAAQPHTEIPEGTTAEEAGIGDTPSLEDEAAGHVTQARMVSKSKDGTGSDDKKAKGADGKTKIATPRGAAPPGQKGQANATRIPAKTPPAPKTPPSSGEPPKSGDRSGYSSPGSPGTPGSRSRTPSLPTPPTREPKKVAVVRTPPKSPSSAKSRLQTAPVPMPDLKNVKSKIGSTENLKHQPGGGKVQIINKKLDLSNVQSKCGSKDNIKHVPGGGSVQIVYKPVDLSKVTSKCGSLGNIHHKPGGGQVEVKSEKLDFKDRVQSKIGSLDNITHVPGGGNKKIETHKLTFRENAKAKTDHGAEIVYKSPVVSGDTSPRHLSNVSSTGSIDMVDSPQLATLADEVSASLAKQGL
# Experimental: (§1) Fresh frozen, autopsy-confirmed human PD anterior cingulate cortex brain tissue blocks (1 cm^3) were obtained from Dr. Thomas Beach at Banner/Sun Health AZ with funding from the Michael J. Fox Foundation and contained frequent α-synuclein aggregates and no other detectable aggregated amyloid species. The frozen tissue blocks were prepared for the binding assays as previously described[47],[48], except that equal quantities of the homogenates of three AD brains (AD1-AD3, Table S1) were pooled, as were homogenates from three PSP brains (PSP1-PSP3), three CBD brains (CBD1-CBD3), three Pick’s brains (PiD1-PiD3), and 4 PD brains (PD1-PD4) in order to help minimize the inter-subject variability within the different neuropathological groups. Individual subcortical brain tissues from a PSP subject (PSP4) and a CBD subject (CBD4), as well as with the middle frontal cortex of a control subject, were prepared for the binding assays as previously described[47],[48].
# (§2) The equilibrium inhibition constant (Ki) values of the unlabeled compounds were determined versus tritium-labeled radioligands using published methods.
# aggregated Aβ = biological target: T2, aggregated Aβ (Homo sapiens, UniProt P05067); assay: Competition binding vs [^3H]PiB in AD tissue homogenates; settings: n = 3
# T2 construct: tissue Neurodegenerative Disease Brain Bank at UCSF; host or cells: human AD brain, middle frontal gyrus, pooled homogenate
# T2 sequence (P05067 672-713 limits assumed): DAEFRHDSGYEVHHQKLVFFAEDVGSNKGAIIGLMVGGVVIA
# Experimental: as §1, §2
# [2] = biological target: T3, 3R-tau aggregates in PiD tissue (Homo sapiens, UniProt P10636); assay: Competition binding vs [^3H]OXD-2314 in PiD tissue
# T3 construct: tissue Neurodegenerative Disease Brain Bank at UCSF; host or cells: human PiD brain, middle frontal gyrus, pooled homogenate of three brains
# T3 sequence (P10636 1-410 isoform P10636-5): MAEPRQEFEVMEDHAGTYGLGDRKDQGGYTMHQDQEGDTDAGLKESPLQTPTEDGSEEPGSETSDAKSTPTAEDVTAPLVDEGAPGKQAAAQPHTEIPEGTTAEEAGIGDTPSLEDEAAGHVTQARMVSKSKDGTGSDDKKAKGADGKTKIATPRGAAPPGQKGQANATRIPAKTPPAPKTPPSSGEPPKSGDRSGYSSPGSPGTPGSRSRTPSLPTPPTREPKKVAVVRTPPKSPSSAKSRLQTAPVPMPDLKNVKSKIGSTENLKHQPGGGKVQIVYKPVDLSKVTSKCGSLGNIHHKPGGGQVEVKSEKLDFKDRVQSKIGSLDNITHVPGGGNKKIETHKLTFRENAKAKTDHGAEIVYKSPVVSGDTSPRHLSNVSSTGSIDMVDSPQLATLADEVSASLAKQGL
# Experimental: as §1, §2
# [3] = Mouse pharmacology (DMPK): plasma and brain concentrations, brain-to-plasma ratios after i.v. administration; type: in vivo, mice
# Experimental: Ex vivo evaluation of the BBB permeability of OXD-2314 was performed by measuring the brain-to-plasma ratios in mice. Compound concentrations in plasma (0.03 h, 0.17 h, 0.5 h, 1 h, and 2 h; n = 3 per timepoint) were compared with concentrations in brain (0.03 h, 0.17 h, 1 h, and 2 h; n = 3 per timepoint) for both OXD-2115 and OXD-2314. The total brain-to-plasma concentration ratios were 1.7 for OXD-2314 and 0.1 for OXD-2115. The free concentration ratio for brain-to-plasma was 0.6 for OXD-2314 and 0.002 for OXD-2115 (Figs. S3–S8 and Tables S2, S3).
# [4] = biological target: T4, 4R-tau aggregates in CBD tissue (Homo sapiens, UniProt P10636); assay: Competition binding vs [^3H]OXD-2115 in CBD tissue; settings: vs [^3H]OXD-2115, CBD tissue, n = 1
# T4 construct: tissue Neurodegenerative Disease Brain Bank at UCSF; host or cells: human CBD brain, middle frontal gyrus (pool of three) or putamen (one subject)
# T4 sequence (P10636 1-441 isoform P10636-8): as the sequence (P10636 1-441 isoform P10636-8) above
# Experimental: as §1, §2
# [5] = biological target: T4, 4R-tau aggregates in CBD tissue; assay: Competition binding vs [^3H]OXD-2314 in CBD tissue
# Experimental: as §1, §2
# [6] = Dynamic PET imaging with [^18F]OXD-2314 in rhesus macaque (baseline and displacement); type: in vivo
# Experimental: Dynamic PET imaging was performed in a rhesus macaque (macaca mulatta) monkey following the injection of [^18F]OXD-2314 at baseline (104.9 MBq, n = 1) and was repeated in a second [^18F]OXD-2314 study (115.8 MBq, n = 1) where a displacing dose of unlabeled OXD-2314 (0.5 mg/kg) was administered 10 min after [^18F]OXD-2314 injection to verify the absence of specific binding in NHP brain. Venous blood samples were drawn to characterize the metabolic fate of [^18F]OXD-2314 in the macaque. Dynamic [^18F]OXD-2314 PET imaging was also performed in a male (106.6 MBq, n = 1) and a female (115.8 MBq, n = 1) baboon (papio anubis), and venous blood samples were drawn in both baboons to characterize potential effects of sex on radiometabolism. Bilateral regions of interest were defined on 5–8 contiguous axial image planes for the lateral temporal cerebral cortex, cerebellum, striatum, and whole brain, which were used to sample dynamic [^18F]OXD-2314 PET images to determine the time-varying radioactivity concentration expressed in SUV units. [^18F]OXD-2314 readily entered macaque brain (whole brain peak ~2.2 SUV at ~2 min) and distributed uniformly throughout cortical and subcortical grey matter regions (Fig. 5A). […] Radiometabolite analysis of macaque venous blood identified only one, polar radiometabolite, which increased from 37% at 10 min to 77% at 90 min post-injection and was not likely brain penetrant (Figs. S19, S20).
# NHP imaging studies in a male (13 kg) macaca mulata monkey and male (25.7 kg) and female (14.2 kg) papio anubis baboons were carried out in accordance with the guidelines set forth by the Institutional Animal Care and Use Committee at the University of Pittsburgh. Additional details regarding the maintenance of an active environmental enrichment program for the housed NHPs are described in Supplemental Information. Dynamic [^18F]OXD-2314 PET imaging of the brains of the isoflurane anesthetized NHPs was performed using a Siemens Biograph mCT Flow 64-4 R PET/CT scanner ([…], maximum intrinsic spatial resolution of 4.3 mm FWHM[53]. Following a low-dose CT scan for attenuation correction of PET emission data, [^18F]OXD-2314 was injected intravenously and emission data were acquired in list-mode for a period of 90 min. Emission data were binned into a dynamic series of 32 frames (20 sec-10 min) and reconstructed using filtered back projection with Fourier rebinning (FORE + FBP) with standard corrections applied that included attenuation, scatter, electronics dead-time, and physical decay.
SMILES,Ki [1] [nM],Ki (aggregated Aβ) [nM],Ki [2] [nM],"Conc. (ng/ml), brain ([3]; mouse brain, t=1 hr after i.v. administration, individual animals, LC-MS/MS 341.7500>256.1500, re-run Brain_2) [ng/mL]","Conc. (ng/ml), brain ([3]; mouse brain, t=2 hr after i.v. administration, individual animals, LC-MS/MS 341.7500>256.1500, re-run Brain_2)","Kp,uu (unbound brain-to-plasma ratio) ([3]; mouse, brain, iv, mice, i.v., AUC brain:plasma, FREE, read-out: free concentration ratio brain-to-plasma)","Kp ([3]; mouse, brain, iv, mice, i.v., AUC brain:plasma, TOTAL, read-out: total brain-to-plasma concentration ratio)","concentration at 1 h ([3]; mouse, brain, iv, mouse brain, t=1 hr after i.v. administration, individual animals, LC-MS/MS 341.7500>256.1500, re-run Brain_2, read-out: Conc. (ng/ml), brain) [ng/mL]",Ki [4] [nM],Ki [5] [nM],initial brain uptake ([6]; NHP) [SUV],ratio initial maximum to late minimum brain radioactivity ([6]; NHP),2:90 min radioactivity concentration ratio ([6]; macaque whole brain),"time of whole brain peak ([6]; macaque, baseline)","whole brain clearance half-time ([6]; macaque, baseline)","whole brain peak uptake ([6]; macaque, baseline, n = 1)"
"COC1CCCN(c2ccc(-c3cc4cc(O)ccc4[nH]3)c(F)n2)C1 (stereo not shown) [OXD-2314, 2-(2-fluoro-6-(3-methoxypiperidin-1-yl)pyridin-3-yl)-1H-indol-5-ol]",4.8,161 ± 34,5.5 ± 0.5,0.851,0.647 ng/mL and 0.5 ng/mL and 0.3 ng/mL,0.6,1.7,1,4.4,6.5 ± 0.4,–,–,–,–,–,–
CO[C@H]1CCCN(c2ccc(-c3cc4cc(O)ccc4[nH]3)c([18F])n2)C1 [[^18F]OXD-2314],–,–,–,–,–,–,–,–,–,–,> 2,~ 4,3.9,~ 2 min,~ 22 min,~ 2.2 SUV
